Numbers after ± are expanded uncertainties.
Details: 101.33 kPa, Liquid; for speed of sound: Sing-around technique in a fixed-path interferometer; for mass density: Vibrating tube method

| Structure (SMILES) | speed of sound (298.15 K) [m/s] | mass density (298.15 K) [kg/m3] | speed of sound (303.15 K) [m/s] | mass density (303.15 K) [kg/m3] | speed of sound (308.15 K) [m/s] | mass density (308.15 K) [kg/m3] |
| --- | --- | --- | --- | --- | --- | --- |
| Cc1ccccc1Cl [2-chlorotoluene] | 1298.7 ± 1.4 | 1077.3 ± 1 | 1280.7 ± 1.4 | 1072.5 ± 1 | 1262.7 ± 1.4 | 1067.6 ± 1 |
| C1CCCCC1 [cyclohexane] | 1253.6 ± 1.2 | 773.94 ± 1 | 1229.1 ± 1.2 | 769.21 ± 1 | 1205.1 ± 1.2 | 764.45 ± 1 |
| C1CCOCC1 [tetrahydropyran] | 1269.8 ± 1.2 | 879.13 ± 1 | 1246.8 ± 1.2 | 873.99 ± 1 | 1224.4 ± 1.2 | 868.83 ± 1 |

Continued, values first:

| speed of sound (298.15 K) [m/s] | mass density (298.15 K) [kg/m3] | speed of sound (303.15 K) [m/s] | mass density (303.15 K) [kg/m3] | speed of sound (308.15 K) [m/s] | mass density (308.15 K) [kg/m3] | Structure (SMILES) |
| --- | --- | --- | --- | --- | --- | --- |
| 1431.6 ± 1.3 | 999 ± 1 | 1417.4 ± 1.3 | 994.65 ± 1 | 1402.2 ± 1.3 | 990.3 ± 1 | CNC=O [N-methylformamide] |
| 1458.5 ± 1.2 | 944.6 ± 1 | 1440.2 ± 1.2 | 939.83 ± 1 | 1420.8 ± 1.2 | 935.05 ± 1 | CN(C)C=O [dimethylformamide] |

Source: the NIST ThermoML archive (doi:10.1016/j.jct.2014.06.030)
